14 compounds from patent US12365687B2 (Hoffmann-La Roche Inc., priority 2021, dated 2025) can be followed below.

Experiment [1] has as its target human GABAA α5β2γ1 receptor (Homo sapiens (Human), UniProt P31644+Q8N1C3). In words: Radioligand binding assay for γ1-containing GABAA subtypes, [3H]RO7239181 competition (α5β2γ1).
Experiment [2] concerns the target human GABAA α2β2γ1 receptor (Homo sapiens (Human), UniProt P47869+Q8N1C3). In words: Radioligand binding assay for γ1-containing GABAA subtypes, [3H]RO7239181 competition (α2β2γ1).
The target in experiment [3] is human GABAA α1β3γ2 receptor (Homo sapiens (Human), UniProt P14867+P18507). In words: Radioligand binding assay for γ2-containing GABAA subtypes, [3H]Flumazenil competition (α1β3γ2). To be noted: for γ2/γ1 Selectivity Ratio: Ki α1β3γ2 (nM)/Ki α2β2γ1 (nM); for LogSel: Log[Ki α1β3γ2 (nM)/Ki α2β2γ1 (nM)].
The target in experiment [4] is α2β2γ1 GABAA receptor subtype (Homo sapiens (Human), UniProt P47869+Q8N1C3). In words: Two-electrode voltage clamp electrophysiology in Xenopus oocytes expressing GABAA receptors (modulation of GABA EC20 current). It counts as cell-based. Conditions: for Efficacy (GABA)%: % modulation of GABA EC20 = 100*(Fold increase-1), α2β2γ1 oocytes, compound at approx. 30-fold Ki; for Fold increase h-GABA-A α2β2γ1 oocyte @ 30-fold Ki: Xenopus oocytes expressing α2β2γ1, compound at approx. 30-fold its Ki α2β2γ1, GABA EC20 current. The procedure, abridged:
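Two-electrode voltage clamp at −80 mV, room temperature, 3-5 days after mRNA injection into oocytes. GABA applied at EC20 for 1.5 min, twice, with compound during second application; at least 3 oocytes per concentration. Efficacy = extremum of point-by-point current ratio, expressed as 100×(fold increase−1).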

Setting [5] is: Ki h-GABAA α2β2γ1, [3H]RO7239181 competition binding, human GABAA α2β2γ1.
The mark [6] stands for this setting: Ki h-GABAA α2β2γ1, displacement of [3H]RO7239181, membranes of HEK293F cells expressing human receptors, means of two determinations.

Take `Cc1nc2n(n1)-c1ccc(C(F)(F)F)c(Cl)c1C(c1ncccc1F)=N[C@H]2C` [Example 83, (4S)-7-chloro-6-(3-fluoro-2-pyridyl)-2,4-dimethyl-8-(trifluoromethyl)-4H-[1,2,4]triazolo[1,5-a][1,4]benzodiazepine]: in experiment [1], the Ki was determined as 5.54 nM. In experiment [2] (setting [5]), the Ki amounted to 70.8 nM. The compound further displayed a Ki in experiment [2] (setting [6]) of 70.8 nM. Also, in experiment [3], the Ki worked out at 5490 nM, the “γ2/γ1 Selectivity Ratio” value was 77.6 and the LogSel is 1.89. In addition, in experiment [4], the “Efficacy (GABA)%” value is reported as 154% and the “Fold increase h-GABA-A α2β2γ1 oocyte @ 30-fold Ki” value is on record as 2.54.
`C[C@@H]1N=C(c2ncccc2F)c2c(ccc(Cl)c2Cl)-n2nc(C(=O)N3CC[C@@H](F)C3)nc21` [Example 78, [(4S)-7,8-dichloro-6-(3-fluoro-2-pyridyl)-4-methyl-4H-[1,2,4]triazolo[1,5-a][1,4]benzodiazepin-2-yl]-[(3R)-3-fluoropyrrolidin-1-yl]methanone] registered a Ki in experiment [1] of 18.6 nM. Besides, in experiment [2] (setting [5]), the Ki amounted to 96.3 nM. The compound also came in with a Ki in experiment [2] (setting [6]) of 96.3 nM. Further, in experiment [3], the Ki turned out to be 6900 nM, the “γ2/γ1 Selectivity Ratio” value is 71.6 and the LogSel came out at 1.86. Further, in experiment [4], the “Efficacy (GABA)%” value stood at 98% and the “Fold increase h-GABA-A α2β2γ1 oocyte @ 30-fold Ki” value came out at 1.98.
For the compound `C[C@@H]1N=C(c2c(F)cccc2F)c2c(ccc(C(F)(F)F)c2Cl)-n2c(CO)cnc21` [Example 132, [(4S)-7-chloro-6-(2,6-difluorophenyl)-4-methyl-8-(trifluoromethyl)-4H-imidazo[1,2-a][1,4]benzodiazepin-1-yl]methanol], in experiment [1], the Ki amounted to 2.63 nM. Affinity in experiment [2] (setting [5]) was put at a Ki of 33.8 nM. In addition, the affinity in experiment [2] (setting [6]), expressed as Ki, was 33.8 nM. Further, in experiment [3], the Ki worked out at 2560 nM, the “γ2/γ1 Selectivity Ratio” value amounted to 75.8 and the LogSel was determined as 1.88. Besides, in experiment [4], the “Efficacy (GABA)%” value came out at 105% and the “Fold increase h-GABA-A α2β2γ1 oocyte @ 30-fold Ki” value is 2.05.
Regarding `C[C@@H]1N=C(c2ncccc2F)c2c(ccc(C(F)(F)F)c2Cl)-n2cc(C(=O)N3CC(C(F)F)C3)nc21` [Example 156, [3-(difluoromethyl)azetidin-1-yl]-[(4S)-7-chloro-6-(3-fluoro-2-pyridyl)-4-methyl-8-(trifluoromethyl)-4H-imidazo[1,2-a][1,4]benzodiazepin-2-yl]methanone], the Ki in experiment [1] turned out to be 15.5 nM; in experiment [2] (setting [5]) it was 95.1 nM; in experiment [2] (setting [6]) it was 93.1 nM; in experiment [3] it was 10800 nM. In addition, the “γ2/γ1 Selectivity Ratio” value in experiment [3] came out at 116.1. For the same compound, the LogSel in experiment [3] amounted to 2.06. In addition, the “Efficacy (GABA)%” value in experiment [4] worked out at 168%. For the same compound, the “Fold increase h-GABA-A α2β2γ1 oocyte @ 30-fold Ki” value in experiment [4] is listed as 2.68.
Regarding `C[C@@H]1N=C(c2c(F)cccc2F)c2c(ccc(Cl)c2Cl)-n2nc(N3CCCC3=O)nc21` [Example 50, 1-[(4S)-7,8-dichloro-6-(2,6-difluorophenyl)-4-methyl-4H-[1,2,4]triazolo[1,5-a][1,4]benzodiazepin-2-yl]pyrrolidin-2-one], the Ki in experiment [1] was 0.89 nM. For the same compound, in experiment [2] (setting [5]), affinity was put at a Ki of 4.5 nM. For the same compound, the affinity in experiment [2] (setting [6]), expressed as Ki, was 4.5 nM. Moreover, in experiment [3], the Ki stood at 376 nM, the “γ2/γ1 Selectivity Ratio” value was found to be 83.5 and the LogSel is 1.92. In addition, in experiment [4], the “Efficacy (GABA)%” value is 60% and the “Fold increase h-GABA-A α2β2γ1 oocyte @ 30-fold Ki” value is given as 1.60.
Take `C[C@@H]1N=C(c2c(F)cccc2F)c2c(ccc(Cl)c2Cl)-n2nc(C(=O)N3CC[C@H](O)C3)nc21` [Example 43, [(4S)-7,8-dichloro-6-(2,6-difluorophenyl)-4-methyl-4H-[1,2,4]triazolo[1,5-a][1,4]benzodiazepin-2-yl]-[(3S)-3-hydroxypyrrolidin-1-yl]methanone]: the Ki in experiment [1] turned out to be 1.26 nM; in experiment [2] (setting [5]), 4.7 nM; in experiment [2] (setting [6]) it was 4.75 nM; in experiment [3], 837 nM. Moreover, the “γ2/γ1 Selectivity Ratio” value in experiment [3] is 176.3. In addition, the LogSel in experiment [3] stood at 2.25. For the same compound, the “Efficacy (GABA)%” value in experiment [4] is listed as 71%. For the same compound, the “Fold increase h-GABA-A α2β2γ1 oocyte @ 30-fold Ki” value in experiment [4] was found to be 1.71.
`C[C@@H]1N=C(c2ncccc2F)c2c(ccc(Cl)c2Cl)-n2nc(C(=O)N3CC4(CCCO4)C3)nc21` [Example 97, [(4S)-7,8-dichloro-6-(3-fluoro-2-pyridyl)-4-methyl-4H-[1,2,4]triazolo[1,5-a][1,4]benzodiazepin-2-yl]-(5-oxa-2-azaspiro[3.4]octan-2-yl)methanone] registered a Ki in experiment [1] of 8.64 nM. Moreover, the Ki in experiment [2] (setting [5]) came to 14.8 nM. The compound further gave a Ki in experiment [2] (setting [6]) of 14.8 nM. For the same compound, in experiment [3], the Ki amounted to 3590 nM, the “γ2/γ1 Selectivity Ratio” value turned out to be 242.0 and the LogSel was found to be 2.38. Further, in experiment [4], the “Efficacy (GABA)%” value is given as 95% and the “Fold increase h-GABA-A α2β2γ1 oocyte @ 30-fold Ki” value was found to be 1.95.
Consider `O=C(NC1COC1)c1nc2n(n1)-c1ccc(Cl)c(Cl)c1C(c1c(F)cccc1F)=NC2` [Example 10, 7,8-dichloro-6-(2,6-difluorophenyl)-N-(oxetan-3-yl)-4H-[1,2,4]triazolo[1,5-a][1,4]benzodiazepine-2-carboxamide], for which the Ki in experiment [1] was 0.79 nM; in experiment [2] (setting [5]), 3.1 nM; in experiment [2] (setting [6]), 3.06 nM; in experiment [3], 445 nM. The “γ2/γ1 Selectivity Ratio” value in experiment [3] stood at 145.5. For the same compound, in experiment [3], the LogSel came out at 2.16. Moreover, in experiment [4], the “Efficacy (GABA)%” value amounted to 70%. In addition, the “Fold increase h-GABA-A α2β2γ1 oocyte @ 30-fold Ki” value in experiment [4] was determined as 1.70.
As for `C[C@@H]1N=C(c2c(F)cccc2F)c2c(ccc(Cl)c2Cl)-n2nc(C(=O)N3CC4(CCOCC4)C3)nc21` [Example 99, [(4S)-7,8-dichloro-6-(2,6-difluorophenyl)-4-methyl-4H-[1,2,4]triazolo[1,5-a][1,4]benzodiazepin-2-yl]-(7-oxa-2-azaspiro[3.5]nonan-2-yl)methanone], the Ki came to 3.29 nM in experiment [1], 4.5 nM in experiment [2] (setting [5]), 4.45 nM in experiment [2] (setting [6]) and 1550 nM in experiment [3]. In addition, the “γ2/γ1 Selectivity Ratio” value in experiment [3] was 348.9. Also, the LogSel in experiment [3] is 2.54. Further, the “Efficacy (GABA)%” value in experiment [4] was 52%. Also, the “Fold increase h-GABA-A α2β2γ1 oocyte @ 30-fold Ki” value in experiment [4] is on record as 1.52.
The compound `C[C@@H]1N=C(c2c(F)cccc2F)c2c(ccc(C(F)(F)F)c2Cl)-n2nc(NC(=O)NC3CC3)nc21` [Example 126, 1-[(4S)-7-chloro-6-(2,6-difluorophenyl)-4-methyl-8-(trifluoromethyl)-4H-[1,2,4]triazolo[1,5-a][1,4]benzodiazepin-2-yl]-3-cyclopropyl-urea] displayed a Ki in experiment [1] of 3.23 nM. For the same compound, the affinity in experiment [2] (setting [5]), expressed as Ki, was 10.2 nM. Also, the Ki in experiment [2] (setting [6]) was found to be 10.2 nM. Also, in experiment [3], the affinity corresponds to a Ki of 4600 nM, the “γ2/γ1 Selectivity Ratio” value came to 451.4 and the LogSel stood at 2.65. Also, in experiment [4], the “Efficacy (GABA)%” value was 38% and the “Fold increase h-GABA-A α2β2γ1 oocyte @ 30-fold Ki” value was 1.38.
Regarding `C[C@@H]1N=C(c2c(F)cccc2F)c2c(ccc(Cl)c2Cl)-n2nc(C(N)=O)nc21` [Example 35, (4S)-7,8-dichloro-6-(2,6-difluorophenyl)-4-methyl-4H-[1,2,4]triazolo[1,5-a][1,4]benzodiazepine-2-carboxamide], in experiment [1], the Ki turned out to be 0.73 nM. This compound also showed an inhibition constant Ki in experiment [2] (setting [5]) of 6.5 nM. The compound also came in with an inhibitory constant (Ki) in experiment [2] (setting [6]) of 6.53 nM. Also, in experiment [3], the Ki was found to be 778 nM, the “γ2/γ1 Selectivity Ratio” value is 119.1 and the LogSel is given as 2.08. Besides, in experiment [4], the “Efficacy (GABA)%” value turned out to be 67% and the “Fold increase h-GABA-A α2β2γ1 oocyte @ 30-fold Ki” value came to 1.67.
Take `C[C@@H]1N=C(c2c(F)cccc2F)c2c(ccc(Cl)c2Cl)-n2nc(N3CC(O)C3)nc21` [Example 66, 1-[(4S)-7,8-dichloro-6-(2,6-difluorophenyl)-4-methyl-4H-[1,2,4]triazolo[1,5-a][1,4]benzodiazepin-2-yl]azetidin-3-ol]: in experiment [1], the Ki was 1.24 nM. For the same compound, the affinity in experiment [2] (setting [5]) corresponds to a Ki of 6.1 nM. In experiment [2] (setting [6]), the Ki came out at 6.1 nM. Moreover, in experiment [3], the Ki stood at 241 nM, the “γ2/γ1 Selectivity Ratio” value is given as 39.7 and the LogSel is given as 1.60. Further, in experiment [4], the “Efficacy (GABA)%” value was 58% and the “Fold increase h-GABA-A α2β2γ1 oocyte @ 30-fold Ki” value came out at 1.58.
On to `CCOC1CN(C(=O)c2cn3c(n2)[C@H](C)N=C(c2ncccc2F)c2c-3ccc(C(F)(F)F)c2Cl)C1` [Example 158, (3-ethoxyazetidin-1-yl)-[(4S)-7-chloro-6-(3-fluoro-2-pyridyl)-4-methyl-8-(trifluoromethyl)-4H-imidazo[1,2-a][1,4]benzodiazepin-2-yl]methanone], for which the Ki in experiment [1] is 21.7 nM; in experiment [2] (setting [5]), 94.6 nM; in experiment [2] (setting [6]), 94.1 nM; in experiment [3], more than 30000 nM. Besides, in experiment [3], the “γ2/γ1 Selectivity Ratio” value was 318.9. Also, the LogSel in experiment [3] came out at 2.50. Besides, in experiment [4], the “Efficacy (GABA)%” value stood at 144%. For the same compound, the “Fold increase h-GABA-A α2β2γ1 oocyte @ 30-fold Ki” value in experiment [4] stood at 2.44.
As for `C[C@H](O)CNC(=O)c1cn2c(n1)[C@H](C)N=C(c1ncccc1F)c1c-2ccc(C(F)(F)F)c1Cl` [Example 155, (4S)-7-chloro-6-(3-fluoro-2-pyridyl)-4-methyl-N-[(2S)-2-hydroxypropyl]-8-(trifluoromethyl)-4H-imidazo[1,2-a][1,4]benzodiazepine-2-carboxamide], the Ki stood at 10.8 nM in experiment [1], 49.7 nM in experiment [2] (setting [5]), 49.3 nM in experiment [2] (setting [6]) and 8990 nM in experiment [3]. Also, the “γ2/γ1 Selectivity Ratio” value in experiment [3] is given as 182.4. In addition, in experiment [3], the LogSel is recorded as 2.26. Further, the “Efficacy (GABA)%” value in experiment [4] was determined as 193%. For the same compound, the “Fold increase h-GABA-A α2β2γ1 oocyte @ 30-fold Ki” value in experiment [4] was found to be 2.93.

The Ki is the equilibrium dissociation constant of an inhibitor or competing ligand from its target. Low values mean a stronger hold on the target, high ones a looser hold on the target.
